Source: publication PMC9354243, “The Role of Tryptophan in π Interactions in Proteins: An Experimental Approach” (Journal of the American Chemical Society, 2022)

Test system: LmrR variants
Experiment: SPR of the LmrR-Dau interaction at 10 and 25 °C, all LmrR variants
Type: binding, Lactococcus lactis
Procedure: The thermodynamics of the LmrR–Dau interaction was recently reported to be mostly entropy driven.[21] To investigate this point in more detail the temperature dependence of the LmrR–Dau interaction was studied by surface plasmon resonance (SPR) experiments at 10 and 25 °C. […] The average ΔΔG from 6 LmrR variants is around 0.1 kJ/mol. These values imply that the temperature effects on the ΔGs are negligible, which would be in line with a low contribution of entropic factors to the Dau–LmrR interaction.
RibU. […]
MALDI-TOF. […] Spots were measured using a Voyager DE-PRO MALDI-TOF (time of flight) instrument (Applied Biosystems). The incorporation efficiency of Trp analog was calculated after measuring the peak areas of the peptide conta ining either Trp or Trp analog.
Binding assays - surface plasmon resonance (SPR). LmrR and mutants were immobilized on a CM5 sensor chip and binding of drugs was monitored using a BIACORE3000 system. The binding responses of Dau and RBF to LmrR were measured in triplicate at both 25 °C and 10 °C, in HBS-EP running buffer (10 mM HEPES, pH 7.4, 150 mM NaCl, 50 µM EDTA, and 0.005% surfactant P-20). The binding responses were corrected by subtracting the response measured in the control lane, to which a […]

## COc1cccc2c1C(=O)c1c(O)c3c(c(O)c1C2=O)C[C@@](O)(C(C)=O)C[C@@H]3O[C@H]1C[C@H](N)[C@H](O)[C@H](C)O1 [Dau, Daunomycin]
10 °C versus 25 °C, all LmrR variants
  Fold increase of binding affinity at lower temperature: 1.4–3.5 fold
Average from 6 LmrR variants
  Average ΔΔG (ΔG10 °C – ΔG25 °C): around 0.1 kJ/mol
